Source: patent publication US8222260B2, “Substituted 6-anilinopurine derivatives as inhibitors of cytokinin oxidase/dehydrogenase and preparations containing these derivatives” (Univerzita Palackego V Olomouci, priority 2007, dated 2012)
pEC50: −log10 of the molar value. Where “and” joins values, the source holds several entries; their conditions need not be identical. Identical values can stand only once.

How the values were obtained:
[1] = test system: Human diploid fibroblasts HCA; assay: Anti-aging activity: senescence-associated beta-galactosidase in human fibroblasts; type: cell-based; details: for Senescent Cells (%) HCA passage 25: passage 25, cells expressing senescence-associated beta-galactosidase; for Senescent Cells (%) HCA passage 50: passage 50, cells expressing senescence-associated beta-galactosidase; for Senescent Cells (%) HCA passage 80: passage 80, cells expressing senescence-associated beta-galactosidase
Description: In this example, effects of the compounds of this invention on the activity of a senescence biomarker senescence-associated β-galactosidase was studied. Human diploid fibroblasts HCA of various passage levels were used for this purpose. The tested compounds were added to the medium at each passage. After the incubation period, cells were washed with PBS and fixed with 2% formaldehyde and 0.2% glutaraldehyde in PBS. After another wash with PBS, they were incubated with the staining solution comprising potassium ferricyanide (5 mM), potassium ferrocyanide (5 mM), MgCl2 (2 mM), X-gal (5-bromo-4-chloro-3-indolyl-β-D-galactopyranoside) (1 mg/ml), in citric/phosphate buffer (pH 6.0) at 37° C. (without CO2) for at least 1 hour. Following the incubation period, the numbers of cells expressing senescence-associated β-galactosidase (blue cells) were counted using light microscope.

[2] = test system: cytokinin-dependent tobacco callus Nicotiana tabacum L. cv. Wisconsin 38; assay: Tobacco callus biotest (plant cell division); type: cell-based; details: for Activity (%) [10^−5 mol · l^−1 K = 100%]: at the concentration with highest activity, relative to 10^−5 M kinetin
Description: The stimulatory effect of the newly prepared derivatives was tested in the calus biotest using cytokinin-dependent tobacco callus. Cytokinin-dependent tobacco callus Nicotiana tabacum L. cv. Wisconsin 38 was maintained at 25° C. in darkness on modified Murashige-Skoog medium, containing per 1 liter: 4 μmol of nicotinic acid, 2.4 μmol of pyridoxine hydrochloride, 1.2 μmol of thiamine, 26.6 μmol of glycine, 1.37 μmol of glutamine, 1.8 μmol of myo-inositol, 30 g of sucrose, 8 g of agar, 5.37 μmol of NAA and 0.5 μmol of 6-benzylaminopurine. Subcultivation was carried out every three weeks. Fourteen days before the bioassay, the callus tissue was transferred to the media without 6-benzylaminopurine. The biological activity was determined from the increase of the fresh callus weight after four weeks of cultivation. Five replicates were prepared for each concentration of the compound tested and the entire test was repeated twice. […] The compounds to be tested were dissolved in dimethylsulfoxide (DMSO) and the solution brought up to 10^−3 M with distilled water.
From the obtained data, the concentration with the highest activity was selected for each compound tested. Relative activity of the compound at this concentration was calculated (Table 11). The activity obtained for 10^−5 M of the control substance kinetin (K) was postulated as 100%.

[3] = test system: Amaranthus caudatus cotyledon/hypocotyl explants; assay: Amaranthus bioassay (betacyanin content); type: cell-based, Amaranthus caudatus var. atropurpurea; details: for Activity (%) [10^−5 mol · l^−1 K = 100%]: at the concentration with highest activity, relative to 10^−5 M kinetin
Description: The standard Amaranthus bioassay was performed with the following modifications. The seeds of Amaranthus caudatus var. atropurpurea were surface-sterilised in 10% (w/v) N-chlorobenzenesulfonamide for 10 min and washed 5 times with deionized water. They were placed in 15 cm Petri dishes containing paper tissues saturated with deionized water. After 72 h of cultivation at 25° C. in darkness, the roots of the seedlings were cut off. The explants, consisting of two cotyledons and hypocotyls, were placed in 5 cm Petri dishes onto two layers of filtration paper soaked with 1 ml of the incubation medium containing 10 μmol of Na2HPO4—KH2PO4, pH 6.8, 5 μmol of tyrosine and the compound to be tested. There were 20 explants per dish. The procedure was carried out under green safe light in a darkroom. After 48 h of incubation at 25° C. in darkness, betacyanin was extracted by freezing the explants in 4 ml 3.33 μM acetic acid. The concentration of betacyanin was determined from the absorbances at 537 nm and 620 nm as follows: ΔA=A537nm−A620nm. The values ΔA were plotted against the concentration tested, are means of five replicates and the entire test was repeated at least twice. […] The compounds to be tested were dissolved in dimethylsulfoxide (DMSO) and the solution brought up to 10^−3M with distilled water.
From the obtained data, the concentration with the highest activity was selected for each compound tested. Relative activity of the compound at this concentration was calculated (Tab. 12). The activity obtained for 10^−5 M kinetin (K) was postulated as 100%.

[4] = target: T1, AHK3 (Arabidopsis thaliana, UniProt Q9C5U1); assay: Activation of cytokinin receptors (E. coli KMI001 beta-galactosidase reporter); type: cell-based; details: 28 h incubation; n.a. means no activation
T1 sequence (Q9C5U1 1-1036): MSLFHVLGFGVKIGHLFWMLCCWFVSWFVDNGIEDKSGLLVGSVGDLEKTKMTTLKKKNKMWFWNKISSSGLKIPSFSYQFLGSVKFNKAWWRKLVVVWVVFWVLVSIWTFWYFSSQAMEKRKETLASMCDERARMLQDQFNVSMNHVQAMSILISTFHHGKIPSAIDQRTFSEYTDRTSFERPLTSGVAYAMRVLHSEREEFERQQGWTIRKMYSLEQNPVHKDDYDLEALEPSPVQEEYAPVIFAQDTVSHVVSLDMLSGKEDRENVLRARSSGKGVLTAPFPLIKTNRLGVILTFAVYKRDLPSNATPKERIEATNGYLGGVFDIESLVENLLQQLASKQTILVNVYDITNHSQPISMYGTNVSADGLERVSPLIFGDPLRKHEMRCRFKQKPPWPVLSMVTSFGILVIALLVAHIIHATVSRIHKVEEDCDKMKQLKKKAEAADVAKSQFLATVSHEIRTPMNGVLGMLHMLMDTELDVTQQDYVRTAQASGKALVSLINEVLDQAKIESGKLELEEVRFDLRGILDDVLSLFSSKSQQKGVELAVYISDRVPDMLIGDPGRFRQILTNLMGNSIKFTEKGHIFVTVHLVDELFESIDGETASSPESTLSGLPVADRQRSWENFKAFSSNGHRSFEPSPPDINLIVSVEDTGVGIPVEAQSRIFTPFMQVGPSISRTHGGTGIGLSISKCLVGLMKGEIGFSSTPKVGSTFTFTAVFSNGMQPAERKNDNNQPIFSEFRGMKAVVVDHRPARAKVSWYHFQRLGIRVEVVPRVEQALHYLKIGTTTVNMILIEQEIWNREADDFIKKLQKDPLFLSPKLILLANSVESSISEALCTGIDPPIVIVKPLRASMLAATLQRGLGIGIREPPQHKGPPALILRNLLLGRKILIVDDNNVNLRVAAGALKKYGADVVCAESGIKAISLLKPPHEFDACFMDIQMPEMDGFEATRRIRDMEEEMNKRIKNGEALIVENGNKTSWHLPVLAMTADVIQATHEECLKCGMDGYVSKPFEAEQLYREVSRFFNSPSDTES
Description: Escherichia coli strains KMI001 harbouring the plasmid […]4 or […]3 were grown overnight at 25° C. in M9 media enriched with 0.1% casamino acids to OD600 1. The preculture was diluted 1:600 in 1 ml M9 medium containing 0.1% casamino acids and 1 μl stock solution of either the tested compound (10^-7 M-5×10^-5 M) or solvent control (DMSO, ethanol, methanol) were added. The cultures were further grown at 25° C. in microtiter plate, 200 μl per well. […] The cultures were centrifuged and 50 μl aliquots of the supernatant were transferred to microtiter plate containing 2 μl 150 mM 4-methyl umbelliferyl galactoside which was subsequently incubated for 1 h at 37° C. The reaction was stopped by adding 100 μl 0.2 M Na2CO3. […] The EC50 value, the compound concentration activating the receptor to 50%, was calculated from the obtained dose response curves. The values shown in Table 10 are means of three replicates and the entire test was repeated at least twice.

SMILES | Senescent Cells (%) HCA passage 25 [1] [%] | Senescent Cells (%) HCA passage 50 [1] [%] | Senescent Cells (%) HCA passage 80 [1] [%] | Activity (%) [10^−5 mol · l^−1 K = 100%] [3] | pEC50 [4] | further results
COc1cc(Nc2nc(Cl)nc3nc[nH]c23)ccc1O | 4 | 6 | – | – | – | –
COc1cccc(Nc2nc(N)nc3nc[nH]c23)c1 [2-amino-6-(3-methoxyanilino)purine] | 4 | 4 | 22 | – | – | –
Nc1nc(Nc2ccc(O)cc2)c2nc[nH]c2n1 [2-amino-(4-hydroanilino)purine] | 3 | 4 | 21 | – | – | –
Nc1nc(Nc2ccc(O)cc2)c2[nH]cnc2n1 [2-amino-(4-hydroxyanilino)purine] | 4 | 4 | 18 | – | – | –
COc1cccc(Nc2nc(Cl)nc3nc[nH]c23)c1 [2-chloro-6-(3-methoxyanilino)purine] | 5 | 5 | 24 | – | – | –
COc1ccc(Nc2nc(Cl)nc3nc[nH]c23)cc1 [2-chloro-6-(4-methoxyanilino)purine] | 4 | 3 | 26 | – | – | –
COc1cccc(Nc2nc(F)nc3nc[nH]c23)c1 [2-fluoro-6-(3-methoxyanilino)purine] | 3 | 5 | 29 | – | – | –
Oc1ccc(Nc2nc(F)nc3nc[nH]c23)cc1 [2-fluoro-6-(4-hydroxyanilino)purine] | 3 | 4 | 18 | – | – | –
CSc1nc(Nc2ccc(O)cc2)c2[nH]cnc2n1 [2-methylthio-6-(4-hydroxyanilino)purine] | 4 | 6 | 34 | – | – | –
Fc1ccc(Nc2nc(Cl)nc3[nH]cnc23)cc1 [Compound 7] | – | – | – | 104% | – | Activity (%) [10^−5 mol · l^−1 K = 100%] [2]: 112%
COc1ccccc1Nc1nc(Cl)nc2nc[nH]c12 [Compound 11] | – | – | – | 110.3% and 121.7% | – | Activity (%) [10^−5 mol · l^−1 K = 100%] [2]: 109%; concentration with highest activity ([2]; fresh weight after four weeks): 10^−5 mol · l^−1; concentration with highest activity ([3]; 48 h): 10^−5 mol · l^−1
COc1ccc(Nc2nc(Cl)nc3[nH]cnc23)cc1 [Compound 13] | – | – | – | – | 4.48 | –
Fc1ccc(Nc2nc(F)nc3[nH]cnc23)cc1 [Compound 46] | – | – | – | 109% | 4.65 | Activity (%) [10^−5 mol · l^−1 K = 100%] [2]: 110.7%
COc1ccc(Nc2nc(F)nc3[nH]cnc23)cc1 [Compound 52] | – | – | – | – | 4.72 | Activity (%) [10^−5 mol · l^−1 K = 100%] [2]: 105%
Nc1nc(Nc2ccc(Cl)cc2)c2nc[nH]c2n1 [Compound 67] | – | – | – | 141.7% | 5.09 | –
Nc1nc(Nc2ccc(F)cc2)c2nc[nH]c2n1 [Compound 70] | – | – | – | 136% | 4.71 | –
COc1ccccc1Nc1nc(N)nc2[nH]cnc12 [Compound 74] | – | – | – | 108% | 4.54 | –
COc1ccc(Nc2nc(N)nc3[nH]cnc23)cc1 [Compound 76] | – | – | – | – | 4.58 | –
Sc1nc(Nc2ccc(Cl)cc2)c2nc[nH]c2n1 [Compound 81] | – | – | – | 122.9% | 4.99 | Activity (%) [10^−5 mol · l^−1 K = 100%] [2]: 115.7%
